# Reference: patent US8748435B2, “Pyrazolo pyrimidine derivatives” (Novartis AG, priority 2011, dated 2014)
# Where a name gives a salt, the structure may show the parent alone.
# Experiments:
# human GPR4 [1] = molecular target: T1, human GPR4 (Homo sapiens (Human), UniProt P46093); assay: Human GPR4 binding assay ([3H]4 radioligand, membranes of 300.19 cells expressing human GPR4); details: radioligand [3H]4 (example 39), membranes of 300.19 cells expressing human GPR4
# Method: a) Human GPR4 Binding Assay
# Cells were grown in T175 flasks to a density of about 1×10^6 cells/mL in growth medium. The cells were harvested by centrifugation (3000 rpm for 30 minutes at 4° C.) and the pellet resuspended in ice cold buffer A (20 mM HEPES pH 7.8, 10 mM EDTA, 100 mM NaCl, 1 tab/40 mL protease inhibitor complete). […] The homogenate was centrifuged at 18000 rpm for 50 min at 4° C. and the membrane protein pellet resuspended in cold buffer A using the Polytron (2×20 seconds). The protein concentration is determined using the Bio Rad Protein Assay and human IgG as standard. The volume of the membrane protein suspension is adjusted to a final concentration of about 2 mg protein/mL. The suspension is then once again homogenized (Polytron) on ice at 25000 rpm for 20 seconds before being aliquoted and stored at −80° C.
# Radio Ligand Binding Assay: Serial dilutions of compounds (stock in 10 mM DMSO) are prepared by first diluting the compounds in DMSO followed by a 1:50 dilution into assay buffer (10 mM HEPES, pH 8.0, 100 mM NaCl, 5 mM MgCl2, 1 mM CaCl2, 0.5% fatty acid-free BSA, 0.05% Tween-20). […] The desired amount of membranes (20 μg/well) is diluted with assay buffer. […] 100 μL of the membrane-suspension is added and the plate stirred for 60 minutes. […] The filter plate is washed 5 times with ice-cold wash buffer, dried and sealed at the bottom. Then 20 μL of Microscint 40 is added into each well and the top of the plate is sealed. Finally the plate is counted for 2 min/well in a TopCount NXT instrument (Packard Instruments). The data are analyzed using the GraphPad Prism™ software.
# mouse GPR4 = mouse GPR4 (Mus musculus (Mouse), UniProt Q8BUD0); assay: Mouse GPR4 cAMP assay; format: cell-based
# Chain of mouse GPR4 (Q8BUD0 whole entry): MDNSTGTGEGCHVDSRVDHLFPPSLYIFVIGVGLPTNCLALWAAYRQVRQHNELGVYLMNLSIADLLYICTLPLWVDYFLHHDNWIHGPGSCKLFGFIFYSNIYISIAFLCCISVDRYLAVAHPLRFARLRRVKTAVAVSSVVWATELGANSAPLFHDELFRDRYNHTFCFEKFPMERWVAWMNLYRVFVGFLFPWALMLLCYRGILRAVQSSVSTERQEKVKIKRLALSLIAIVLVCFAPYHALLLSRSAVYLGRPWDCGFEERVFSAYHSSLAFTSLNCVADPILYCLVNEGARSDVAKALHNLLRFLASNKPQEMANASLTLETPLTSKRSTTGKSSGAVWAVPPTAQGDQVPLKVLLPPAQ
# Method: (§1) HeLa cells stably expressing human GPR4 were established by transfecting the cells with a construct containing the human GPR4 coding sequence. The cells were grown in Dulbecco's Modified Eagle Medium (DMEM)/HAM's tissue culture medium F12 (HAM's F12) supplemented with 10% fetal calf serum (FCS), 100 u/ml penicillin, 100 μg/ml streptomycin and 400 μg/ml G418 and 10 mM Hepes pH 8.0. pH-induced formation of cAMP was determined using the homogeneous time resolved fluorescence (HTRF) technology as provided by CisBio Inc. The cells were seeded in 384-well plates and cultured for 24 hours at 37° C., 5% CO2 before performing the assay. Medium was removed and 10 μl buffer A (Hepes buffered saline (HBS), 10 mM Hepes, pH 8, 2 mM 3-Isobutyl-1-methylxanthin (IBMX)) was added. For compound testing, buffer A with 2× concentrated compounds was used. Cells were incubated for 15 min at room temperature. 10 μl buffer B (HBS, 30 mM Hepes, specific pH) was added to reach the appropriate final pH for stimulation (see below) and incubation was continued for 15 min at room temperature. […] HBS: 130 mM NaCl, 0.9 mM NaH2 PO4, 5.4 mM KCl, 0.8 mM MgSO4, CaCl2 1.8 mM, 25 mM glucose, 10-30 mM Hepes. Adjustment of HBS buffers:
# (§2) Compounds were diluted from fresh stock solutions at 10 mM in DMSO to 2 mM and then used for serial dilutions in DMSO.
# (§3) In a similar manner, assays for the mouse (m) and rat (r) GPR4 receptors have been established.
# Human H3 = Human H3 (Homo sapiens (Human), UniProt Q9Y5N1); assay: Human H3 binding assay (SPA, [3H]-R-alpha-Methylhistamine); details: 3 nM [3H]-R-alpha-Methylhistamine
# Chain of Human H3 (Q9Y5N1 whole entry): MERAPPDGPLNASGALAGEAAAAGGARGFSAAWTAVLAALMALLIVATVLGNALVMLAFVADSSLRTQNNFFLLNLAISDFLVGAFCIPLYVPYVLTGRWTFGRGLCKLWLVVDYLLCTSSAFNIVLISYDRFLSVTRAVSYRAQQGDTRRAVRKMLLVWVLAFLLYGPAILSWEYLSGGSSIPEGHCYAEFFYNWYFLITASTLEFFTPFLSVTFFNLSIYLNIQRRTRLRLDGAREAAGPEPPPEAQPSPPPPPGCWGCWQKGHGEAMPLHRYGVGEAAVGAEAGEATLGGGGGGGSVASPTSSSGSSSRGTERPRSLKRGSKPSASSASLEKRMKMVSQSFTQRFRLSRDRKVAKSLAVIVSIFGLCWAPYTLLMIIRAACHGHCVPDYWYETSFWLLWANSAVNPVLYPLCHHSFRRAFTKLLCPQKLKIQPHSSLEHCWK
# Method: c) Human H3 Binding Assay
# The Scintillation Proximity Binding Assay (SPA) assay was performed in a final volume of 50 μL per well in a 384-well polystyrene plate.
# The final concentration of the radioligand was 3 nM. • 20 μL of a beads (PVT-WGA type A) and membranes mixed suspension in assay buffer, in order to get a final concentration of 10 μg/well of membranes and 200 μg/well of beads. As an example, 1471 μL membranes (Conc.: 5.1 mg/mL) and 1500 μL of bead suspension (Conc.: 100 mg/mL) are diluted to a final volume of 15 mL of assay buffer.
# The plates were sealed and shaken at room temperature, then allowed to stand at room temperature for at least 1 hour. The plates were counted using a Perkin Elmer TopCount reader, each well being counted for 1 minute.
# rat GPR4 = rat GPR4 (Rattus norvegicus (Rat), UniProt Q4KLH9); assay: Rat GPR4 cAMP assay; format: cell-based; details: read-out: r cAMP IC50
# Chain of rat GPR4 (Q4KLH9 whole entry): as the sequence (Q8BUD0 whole entry) above, with G8W, H51R, S339T counted along it
# Method: as §1, §2, §3
# human GPR4 [2] = molecular target: T1, human GPR4; assay: Cell-based assay for human GPR4 activity (pH-induced cAMP formation, HTRF, HeLa cells); details: HeLa cells stably expressing human GPR4, pH-induced cAMP
# Method: b) Cell-Based Assay for Human GPR4 Activity
# as §1, §2
# CFA-induced hyperalgesia = assay: Established rat hyperalgesia model (CFA); format: in vivo; details: gavage
# Method: f) Established Rat Hyperalgesia Model
# Naïve withdrawal thresholds of both hind paws were determined by using an increasing pressure stimulus placed onto the dorsal surface of each paw using an analgesymeter. Delayed inflammatory pain was then induced by intra-plantar injection of 25 μl of complete Freund's adjuvant (CFA) into one hindpaw with the contralateral paw acting as the control. […] One hour later, paw withdrawal thresholds were re-measured on both the ipsilateral (CFA-injected) and contralateral (uninjected) paw; measurements were repeated at 3 hrs and 6 hrs post dosing. The reversal of hyperalgesia was calculated using the following formula: Reversal (%)=100×(postdose ipsilateral threshold−predose ipsilateral threshold) (naïve ipsilateral threshold−predose ipsilateral threshold).
# T1 sequence (P46093 whole entry): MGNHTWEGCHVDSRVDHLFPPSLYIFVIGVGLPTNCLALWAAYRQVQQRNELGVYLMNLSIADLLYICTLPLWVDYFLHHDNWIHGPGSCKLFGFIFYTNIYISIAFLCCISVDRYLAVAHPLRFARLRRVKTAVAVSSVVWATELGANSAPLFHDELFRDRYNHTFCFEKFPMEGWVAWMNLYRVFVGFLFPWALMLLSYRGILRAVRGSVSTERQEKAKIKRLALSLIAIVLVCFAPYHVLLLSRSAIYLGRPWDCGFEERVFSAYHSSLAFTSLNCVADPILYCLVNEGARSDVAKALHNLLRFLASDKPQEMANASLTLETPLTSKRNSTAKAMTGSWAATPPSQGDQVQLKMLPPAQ
SMILES,IC50 (human GPR4 [1]),IC50 (mouse GPR4),IC50 (Human H3),IC50 (rat GPR4),IC50 (human GPR4 [2]),other results
"CCc1nn2c(C)cc(C)nc2c1Cc1ccc(C(=O)NCC2CCNCC2)cc1 [Example 20, 4-(2-Ethyl-5,7-dimethyl-pyrazolo[1,5-a]pyrimidin-3-ylmethyl)-N-piperidin-4-ylmethyl-benzamide]",,366 nM,> 30000 nM,1500 nM,79 nM,
"CCc1nn2c(C)cc(C)nc2c1Cc1ccc(-n2cc(CN3CCNCC3)nn2)cc1 [Example 33, 2-Ethyl-5,7-dimethyl-3-[4-(4-piperazin-1-ylmethyl-[1,2,3]triazol-1-yl)-benzyl]-pyrazolo[1,5-a]pyrimidine]",38 nM,872 nM,> 10000 nM,616 nM,31 nM,
"O=C(O)Cc1ccccc1Nc1c(Cl)cccc1Cl [diclofenac, reference compound]",,,,,,"% reversal of hyperalgesia (CFA-induced hyperalgesia; 30 mg/kg, 1 h): 58%; % reversal of hyperalgesia (CFA-induced hyperalgesia; 30 mg/kg, 3 h): 60%; % reversal of hyperalgesia (CFA-induced hyperalgesia; 30 mg/kg, 6 h): 30%"
"CCc1nn2c(C)cc(C)nc2c1Cc1ccc(OCC2CCNCC2)cc1 [Example 21, 2-Ethyl-5,7-dimethyl-3-[4-(piperidin-4-ylmethoxy)-benzyl]-pyrazolo[1,5-a]pyrimidine hydrochloride]",,96 nM,25000 nM,489 nM,12 nM,
"CCc1nc2c(C)cc(C)nc2n1Cc1ccc(/C=C/CN2CCN(C(C)C)CC2)cc1 [Example 40, 2-Ethyl-3-{4-[(E)-3-(4-isopropyl-piperazin-1-yl)-propenyl]-benzyl}-5,7-dimethyl-3H-imidazo[4,5-b]pyridine, reference compound]",,,,,,"% reversal of hyperalgesia (CFA-induced hyperalgesia; 3 mg/kg, 1 h): 23%; % reversal of hyperalgesia (CFA-induced hyperalgesia; 3 mg/kg, 3 h): 11%; % reversal of hyperalgesia (CFA-induced hyperalgesia; 3 mg/kg, 6 h): 0%; % reversal of hyperalgesia (CFA-induced hyperalgesia; 10 mg/kg, 1 h): 48%; % reversal of hyperalgesia (CFA-induced hyperalgesia; 10 mg/kg, 3 h): 40%; % reversal of hyperalgesia (CFA-induced hyperalgesia; 10 mg/kg, 6 h): 0%; % reversal of hyperalgesia (CFA-induced hyperalgesia; 30 mg/kg, 1 h): 55%; % reversal of hyperalgesia (CFA-induced hyperalgesia; 30 mg/kg, 3 h): 45%; % reversal of hyperalgesia (CFA-induced hyperalgesia; 30 mg/kg, 6 h): 8%"

# Continued, in another order:
IC50 (human GPR4 [1]),IC50 (mouse GPR4),IC50 (Human H3),IC50 (rat GPR4),IC50 (human GPR4 [2]),SMILES,other results
33 nM,233 nM,> 30000 nM,181 nM,27 nM,"CCc1nn2c(C)cc(C)nc2c1Cc1ccc(/C=C/CN2CCC(c3nnnn3C)CC2)cc1 [Example 12, 2-Ethyl-5,7-dimethyl-3-(4-{(E)-3-[4-(1-methyl-1H-tetrazol-5-yl)-piperidin-1-yl]-propenyl}-benzyl)-pyrazolo[1,5-a]pyrimidine hydrochloride]",
24 nM,128 nM,,491 nM,19 nM,"CCc1nn2c(C)cc(C)nc2c1Cc1ccc(/C=C/CC2(O)CCN(C[C@@H](O)CO)CC2)cc1 [Example 6, (R)-3-(4-{(E)-3-[4-(2-Ethyl-5,7-dimethyl-pyrazolo[1,5-a]pyrimidin-3-ylmethyl)-phenyl]-allyl}-4-hydroxy-piperidin-1-yl)-propane-1,2-diol]",
,255 nM,> 30000 nM,1330 nM,61 nM,"CCc1nn2c(C)cc(C)nc2c1Cc1ccc(-n2cc(CN3CCN[C@@H](CO)C3)cn2)cc1 [Example 32, ((R)-4-{1-[4-(2-Ethyl-5,7-dimethyl-pyrazolo[1,5-a]pyrimidin-3-ylmethyl)-phenyl]-1H-pyrazol-4-ylmethyl}-piperazin-2-yl)-methanol]",
,,,,40 nM,"CCc1nn2c(C)cc(C)nc2c1Cc1ccc(-c2nnc(C3CCN(C(=O)CNC)CC3)o2)cc1 [Example 37, 1-(4-{5-[4-(2-Ethyl-5,7-dimethyl-pyrazolo[1,5-a]pyrimidin-3-ylmethyl)-phenyl]-[1,3,4]oxadiazol-2-yl}-piperidin-1-yl)-2-methylamino-ethanone]",
38 nM,499 nM,> 30000 nM,2790 nM,46 nM,"CCc1nn2c(C)cc(C)nc2c1Cc1ccc(/C=C/CN2CCN(C(=O)CN)CC2)cc1 [Example 11, 2-Amino-1-(4-{(E)-3-[4-(2-ethyl-5,7-dimethyl-pyrazolo[1,5-a]pyrimidin-3-ylmethyl)-phenyl]-allyl}-piperazin-1-yl)-ethanone dihydrochloride]",
